According to US8084621B2, “3-Pyrrolo[b]cyclohexylene-2-dihydroindolinone derivatives and uses thereof” (Jiangsu Simcere Pharmaceutical R&D Co. Ltd., priority 2006, dated 2011):

Tests used:
Assay type in all cases: cell-based
[1] = system: Human Gastric Cancer Cell Line (BGC); test: Tumor cell proliferation assay (MTT), BGC; conditions: for inhibition at 10 µM: concentration of 10^−5 mol/L, preliminary screening, 72 hours, read-out: Inhibition rate % BGC; for IC50: secondary screening, 48 hours
Description: (§1) The assay used generally is the blue tetrazolium bromide (MTT) method. […] The amount of formazan can be detected by the microplate reader through the absorption value at 570 nm. The amount of formazan product generated is proportional to the number of living cells in the sample, so the OD value may reflect the number of living cells and the ability of a test drug to inhibit or kill cells. The MTT assay may be used in determining the ability of different compounds of the present invention to inhibit one or more cancer cells proliferation. Similar assays can be designed along the same lines for any cancer cell using techniques well known in the art.
(§2) The assay used generally is the blue tetrazolium bromide (MTT) method. […] Intracellular purple formazan salt crystals can be solved in DMSO and the absorption value at 570 nm is detected by the microplate reader, then the number of living cells can be detected indirectly. So MTT assay may be used to determine the ability of a compound of the present invention to inhibit cell proliferation. Similar assays can be designed along the same lines for any cancer cell using techniques well known in the art.
2.2.1 Human Gastric Cancer Cell Line (BGC)
(§3) The cells of the 2.2.1, 2.2.2, 2.2.3, 2.2.4, 2.2.5 cultured with RPMI 1640 containing 12% calf serum in the condition of 37° C., 5% CO2.
(§4) 2.3.1 Cell seeding: Trypsinize the cell by 0.05% trypsin-EDTA and add RPMI 1640 medium (DMEM or 5A) containing 12% calf serum. Count the number, then dilute to 1.67×10^4/ml. Add 180 ul/well to the 96 well plate (3000 cells/well).
(§5) 2.3.2 Culture: cells are incubated for 24 hours at 37° C. under 5% CO2.
(§6) 2.3.3 Preliminary screening: The compounds are firstly diluted to 0.1 mol/L with DMSO, and then diluted to three concentrations of 10^−5 mol/L, 10^−6 mol/L and 10^−7 mol/L. Add 20 ul test compounds to the 96 well plate and incubate for 72 hours. Each group has three parallel wells and all experiments repeat three times. Each inhibition ratio is calculated, then an average value of three times is taken as the measured value. 2.3.4 Staining 2.3.4.1 Attached cell: add 20 ul/well MTT to the 96-well plates; incubate for 4 hours in the incubator. Pour out the culture medium in the well and add 100 ul/well DMSO. Shake the plate for 5 min. 2.3.4.2 Suspension cell: add 20 ul/well MTT to the 96-well plates; incubate for 4 hours in the incubator. Add 50 ul/well 20% SDS and incubate for overnight in the incubator. 2.3.5 Reading the plates: read the absorbance A570-A630 with the Infinite M200 microtiter plate reader. Calculate the inhibition ratio of the test compounds. 2.3.6 Secondary screening: the compounds whose inhibition ratio is greater than 50% at the concentrations of 10^−5 mol/L in the preliminary screening will be picked out for Secondary screening. Dilute these compounds to ten concentrations: 10^−5 mol/L, 0.5×10^−5 mol/L, 10^−6 mol/L, 0.8×10^−6 mol/L, 0.6×10^−6 mol/L, 0.4×10^−6 mol/L, 0.2×10^−6 mol/L, 10^−7 mol/L, 0.8×10^−7 mol/L and 0.4×10^−7 mol/L. Add 20 ul test compound solution to the 96 well plate and incubate for 48 hours. Each group has three parallel wells and all experiments repeat for three times. Read the plates and calculate the inhibition ratio according to the preliminary screening method. 2.3.7 Calculate the Inhibition Ratio of Cell Proliferation and the IC50
(§7) According to the inhibition ratio of cell proliferation at the different concentrations of the compound, inhibition ratio of 50% of the test compound is calculated through the logarithm of the concentration of the compound with the Logit [I] linear regression, and an average value of three times is taken as the measured value of a sample.

[2] = system: Human Pancreatic Carcinoma Cell Line (BXPC-3); test: Tumor cell proliferation assay (MTT), BXPC-3; conditions: for inhibition at 10 µM: concentration of 10^−5 mol/L, preliminary screening, 72 hours, read-out: Inhibition rate % BXPC-3; for IC50: secondary screening, 48 hours
Description: as §1, §2
2.2.6 Human Pancreatic Carcinoma Cell Line (BXPC-3);
The cells of 2.2.6, 2.2.7 cultured in RPMI 1640 medium containing 12% fetal bovine serum in the condition of 37° C., 5% CO2.
as §4, §5
as §6, with “2.3.6 Secondary screening: the compounds whose inhibition ratio is greater than 50% at the concentrations of 10^−5 mol/L in the preliminary screening will be picked out for Secondary screening.” left out
as §7

[3] = system: Human Colon Cancer Cell Line (HT-29); test: Tumor cell proliferation assay (MTT), HT29; conditions: for inhibition at 10 µM: concentration of 10^−5 mol/L, preliminary screening, 72 hours, read-out: Inhibition rate % HT29; for IC50: secondary screening, 48 hours
Description: as §1, §2
2.2.11 Human Colon Cancer Cell Line (HT-29);
(§8) The cells of 2.2.11, 2.2.12, 2.2.13 were cultured in MC COYS 5-A medium containing 12% fetal bovine serum in the condition of 37° C., 5% CO2.
as §4, §5
as §6, with “2.3.6 Secondary screening: the compounds whose inhibition ratio is greater than 50% at the concentrations of 10^−5 mol/L in the preliminary screening will be picked out for Secondary screening.” left out
as §7

[4] = system: Human Pancreatic Carcinoma Cells (PANC-1); test: Tumor cell proliferation assay (MTT), PANC-1; conditions: for inhibition at 10 µM: concentration of 10^−5 mol/L, preliminary screening, 72 hours, read-out: Inhibition rate % PANC-1; for IC50: secondary screening, 48 hours
Description: as §1, §2
2.2.4 Human Pancreatic Carcinoma Cells (PANC-1)
as §3, §4, §5, §6, §7

[5] = system: Human Ovarian Cancer Cell Line (SK-OV-3); test: Tumor cell proliferation assay (MTT), SK-OV-3; conditions: for inhibition at 10 µM: concentration of 10^−5 mol/L, preliminary screening, 72 hours, read-out: Inhibition rate % SK-OV-3; for IC50: secondary screening, 48 hours
Description: as §1, §2
2.2.13 Human Ovarian Cancer Cell Line (SK-OV-3).
as §8, §4, §5, §6, §7

[6] = system: Human Small Cell Lung Cancer Cell Line (NCI-H446); test: Tumor cell proliferation assay (MTT), NCI-H446; conditions: for inhibition at 10 µM: concentration of 10^−5 mol/L, preliminary screening, 72 hours, read-out: Inhibition rate % NCI-H446; for IC50: secondary screening, 48 hours
Description: as §1, §2
2.2.5 Human Small Cell Lung Cancer Cell Line (NCI-H446)
as §3, §4, §5, §6, §7

[7] = system: Human Non-Small Cell Lung Cancer Cell Line (A549); test: Tumor cell proliferation assay (MTT), A549; conditions: for inhibition at 10 µM: concentration of 10^−5 mol/L, preliminary screening, 72 hours, read-out: Inhibition rate % A549; for IC50: secondary screening, 48 hours
Description: as §1, §2
2.2.2 Human Non-Small Cell Lung Cancer Cell Line (A549)
as §3, §4, §5, §6, §7

Row | SMILES | inhibition at 10 µM [1] [%] | inhibition at 10 µM [2] [%] | inhibition at 10 µM [3] [%] | inhibition at 10 µM [4] [%] | inhibition at 10 µM [5] [%] | inhibition at 10 µM [6] [%] | inhibition at 10 µM [7] [%] | IC50 [1] [nM] | IC50 [2] [nM] | IC50 [3] [nM] | IC50 [5] [nM] | IC50 [6] [nM] | IC50 [4] [nM] | IC50 [7] [nM]
1 | Cc1[nH]c2c(c1C(=O)NCC(O)CN1CCOCC1)CCC/C2=C1/C(=O)Nc2ccc(Cl)cc21 (centres unmarked) [I-69, N-(2-hydroxy-3-morpholinopropyl)-2-methyl-7-[1,2-dihydro-5-chloro-2-oxo-3H-indol-(Z)-3-ylidene]-4,5,6,7-tetrahydro-1H-indole-3-carboxamide] | 30 | 39.9 | 34.9 | 22.4 | 2.8 | 25.3 | 18.9 |  |  |  |  |  |  | 
2 | Cc1[nH]c2c(c1C(=O)NCC(O)CN(C)C)CCC/C2=C1/C(=O)Nc2ccc(F)cc21 (centres unmarked) [I-66, N-(3-(dimethylamino)-2-hydroxypropyl)-2-methyl-7-[1,2-dihydro-5-fluoro-2-oxo-3H-indol-(Z)-3-ylidene]-4,5,6,7-tetrahydro-1H-indole-3-carboxamide] | 76.8 | 97.9 | 93 |  | 85.1 | 88.7 |  | 4660 | 3190 | 2890 | 3170 | 3030 |  | 
3 | Cc1[nH]c2c(c1C(=O)NCC(O)CN1CCN(C)CC1)CCC/C2=C1/C(=O)Nc2ccccc21 (centres unmarked) [I-76, N-[2-hydroxy-3-(4-methylpiperazin-1-yl)propyl]-2-methyl-7-[1,2-dihydro-2-oxo-3H-indol-(Z)-3-ylidene]-4,5,6,7-tetrahydro-1H-indole-3-carboxamide] | 74.2 | 97.5 | 92.1 | 80.1 | 90.3 | 64.6 | 64.5 | 3630 | 2240 | 1380 | 3030 | 7090 | 3400 | 1360
4 | CCN(CC)CC(O)CNC(=O)c1c(C)[nH]c2c1CCC/C2=C1/C(=O)Nc2ccc(F)cc21 (centres unmarked) [I-64, N-(3-(diethylamino)-2-hydroxypropyl)-2-methyl-7-[1,2-dihydro-5-fluoro-2-oxo-3H-indol-(Z)-3-ylidene]-4,5,6,7-tetrahydro-1H-indole-3-carboxamide] | 84.7 | 98.5 | 96.6 |  | 93.5 | 98.1 |  | 2210 | 1290 | 1300 | 2240 | 2050 |  | 
5 | Cc1[nH]c2c(c1C(=O)NCC(O)CN1CCOCC1)CCC/C2=C1/C(=O)Nc2ccccc21 (centres unmarked) [I-67, N-(2-hydroxy-3-morpholinopropyl)-2-methyl-7-[1,2-dihydro-2-oxo-3H-indol-(Z)-3-ylidene]-4,5,6,7-tetrahydro-1H-indole-3-carboxamide] | 67.6 | 51.7 | 51.9 | 31.5 | 8.34 | 49.3 |  | 4260 | 7680 | 6900 |  | 9420 |  | 
6 | Cc1[nH]c2c(c1C(=O)NCC(O)CN1CCN(C)CC1)CCC/C2=C1/C(=O)Nc2ccc(Cl)cc21 (centres unmarked) [I-78, N-[2-hydroxy-3-(4-methylpiperazin-1-yl)propyl]-2-methyl-7-[1,2-dihydro-5-chloro-2-oxo-3H-indol-(Z)-3-ylidene]-4,5,6,7-tetrahydro-1H-indole-3-carboxamide] | 48.5 | 31.7 | 24.2 | 21.8 | 20.2 | 8.07 | 29.9 | 12200 |  |  |  |  |  | 
7 | Cc1ccc2c(c1)/C(=C1\CCCc3c1[nH]c(C)c3C(=O)NCC(O)CN(C)C1CCCCC1)C(=O)N2 (centres unmarked) [I-79, N-[3-(cyclohexyl(methyl)amino)-2-hydroxypropyl]-2-methyl-7-[1,2-dihydro-5-methyl-2-oxo-3H-indol-(Z)-3-ylidene]-4,5,6,7-tetrahydro-1H-indole-3-carboxamide] | 81 | 99 | 98.2 | 96.8 | 96 |  | 63.3 | 2280 | 840 | 2320 | 1510 | 3260 | 3990 | 2840
8 | Cc1[nH]c2c(c1C(=O)NCC(O)CN1CCCC1)CCC/C2=C1/C(=O)Nc2ccc(Cl)cc21 (centres unmarked) [I-72, N-(2-hydroxy-3-(pyrrolidin-1-yl)propyl)-2-methyl-7-[1,2-dihydro-5-chloro-2-oxo-3H-indol-(Z)-3-ylidene]-4,5,6,7-tetrahydro-1H-indole-3-carboxamide] | 85.9 | 99.3 | 97.4 | 98.1 | 95.1 | 97.9 | 81.2 | 2920 | 1890 | 4360 | 2170 | 2980 | 1810 | 3730
